Reference: publication PMC9327782, “Benzoxazole derivatives as new VEGFR-2 inhibitors and apoptosis inducers: design, synthesis, in silico studies, and antiproliferative evaluation” (Journal of Enzyme Inhibition and Medicinal Chemistry, 2022)

Molecular target: T1, VEGFR-2 (Homo sapiens, UniProt P35968)
T1 construct: purchased
Experiment: In vitro VEGFR-2 kinase assay (ELISA kit)
Type: biochemical
Description: The assay was applied by ELISA kits in accordance with the comprehensive description in[18]^,[33] as described in Supplementary data. […]
2. In vitro VEGFR-2 kinase assay
All the synthesized compounds were tested for its inhibitory activity against VEGFR-2. Human VEGFR-2 ELISA kit (Enzyme-Linked Immunosorbent Assay) was utilized in this test. At first, specific antibody for VEGFR-2 was seeded on a 96-well plate and 100 μL of the standard solution or the tested compound was added, all were incubated at room temperature for 2.5 h. Then washed, 100 μL of the prepared biotin antibody was added, then incubated at room temperature for additional 1 h. and washed. Then, 100 μL of streptavidin solution was added and incubated for 45 min. at room temperature. Washed again, 100 μL of TMB Substrate reagent was added and incubated for 30 min. at room temperature. 50 μL of the stop solution was added, then read at 450 […]
nm immediately. […]

T1 sequence (P35968 20-1356): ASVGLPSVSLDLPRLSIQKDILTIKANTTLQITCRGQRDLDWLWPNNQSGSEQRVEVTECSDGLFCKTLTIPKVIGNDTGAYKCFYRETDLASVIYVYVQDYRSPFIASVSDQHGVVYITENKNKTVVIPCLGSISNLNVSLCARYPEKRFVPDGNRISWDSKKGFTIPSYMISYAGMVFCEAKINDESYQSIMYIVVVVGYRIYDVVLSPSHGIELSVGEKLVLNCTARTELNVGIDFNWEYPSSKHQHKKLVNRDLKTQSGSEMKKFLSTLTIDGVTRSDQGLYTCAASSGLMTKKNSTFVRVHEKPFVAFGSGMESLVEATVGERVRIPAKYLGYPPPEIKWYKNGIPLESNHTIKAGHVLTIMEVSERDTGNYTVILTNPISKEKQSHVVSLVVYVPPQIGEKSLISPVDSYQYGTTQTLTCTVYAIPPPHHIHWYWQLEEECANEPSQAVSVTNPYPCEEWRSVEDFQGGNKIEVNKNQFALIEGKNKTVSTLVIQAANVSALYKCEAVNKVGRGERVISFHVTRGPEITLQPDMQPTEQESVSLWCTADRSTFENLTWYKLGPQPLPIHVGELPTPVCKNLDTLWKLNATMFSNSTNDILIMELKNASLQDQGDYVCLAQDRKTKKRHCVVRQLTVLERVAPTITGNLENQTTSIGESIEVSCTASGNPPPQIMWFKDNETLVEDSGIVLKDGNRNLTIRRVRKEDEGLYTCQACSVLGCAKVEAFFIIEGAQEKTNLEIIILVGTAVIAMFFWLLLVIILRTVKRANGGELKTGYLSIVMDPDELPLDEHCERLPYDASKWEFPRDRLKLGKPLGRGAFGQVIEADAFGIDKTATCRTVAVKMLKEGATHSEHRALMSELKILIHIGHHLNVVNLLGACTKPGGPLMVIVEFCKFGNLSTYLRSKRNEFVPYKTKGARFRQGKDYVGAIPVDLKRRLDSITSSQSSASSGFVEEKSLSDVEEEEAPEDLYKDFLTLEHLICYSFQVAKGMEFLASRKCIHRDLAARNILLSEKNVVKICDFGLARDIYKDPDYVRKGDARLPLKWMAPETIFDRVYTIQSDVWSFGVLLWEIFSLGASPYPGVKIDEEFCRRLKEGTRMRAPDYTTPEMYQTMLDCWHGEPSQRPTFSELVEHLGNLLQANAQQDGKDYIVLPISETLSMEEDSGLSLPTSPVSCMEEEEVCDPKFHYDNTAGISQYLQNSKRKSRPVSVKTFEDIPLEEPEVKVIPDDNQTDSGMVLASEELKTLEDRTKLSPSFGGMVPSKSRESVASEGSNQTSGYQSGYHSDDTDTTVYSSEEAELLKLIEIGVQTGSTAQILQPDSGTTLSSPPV

Structure (SMILES): Cc1ccc2oc(SCC(=O)Nc3ccc(C(=O)Nc4cccc(Cl)c4)cc3)nc2c1 [Compound 12l, N-(3-Chlorophenyl)-4–(2-((5-methylbenzo[d]oxazol-2-yl)thio)acetamido)benzamide]
- IC50 (ELISA kit): 97.4 nM
- HillSlope best-fit value, VEGFR-2 (supplement raw data, curve fit): -0.4614
- LogIC50 best-fit value, VEGFR-2 (supplement raw data, curve fit): 1.988 Log (nM)
